“Also recorded” adds a separate entry of the source. No end group written: not given here.
Columns and labels:
Assay type in all cases: cell-based
[1] = test system: human IL-2; assay: CTLL-2 proliferation assay (WST-1), IL-2; conditions: murine CTLL-2 cells, 1 nM human IL-2, BNZ132-1 50 and 500 nM, WST-1 OD450
Protocol: FIG. 6A-FIG. 6E presents inhibitory spectrum of BNZ132-1 over γc- and non-γc-cytokines. […] Neutralizing antibodies against each cytokine (R & D systems, 5 μg ml^−1) were included as controls. After 20 h, the cells were pulsed with WST-1 (Clontech) and OD450 of each well was measured after 6 h. A 19-mer scrambled peptide was used as a negative control at 5 μM. The experiments were conducted in triplicate (applies to all experiments in FIG. 6A-FIG. 6E). The result represents one of at least three independent experiments (applies to all experiments in FIG. 6A-FIG. 6E). […] In PT-18 proliferation assay, PT-18β or PT-18h21Rα cells were withdrawn of mouse IL-3 for 12 h before the experiment. Cells were then incubated with 1 nM of mouse IL-4, mouse IL-9, or mouse IL-21 in the presence or absence of the indicated doses (μM) of BNZ132-1. Neutralizing antibodies to each cytokine (5 μg ml^−1, except for anti-mouse IL-21 polyclonal antibody which was used at 15 μg ml−1) and a scrambled control peptide (5 μM) were included as negative controls. WST-1 assay was conducted as described above. […] In PT-18 h21Rα survival assay, PT-18h21Rα cells are described in the text. […] Both parental and hIL-21Rα positive PT-18 cells were washed and incubated without IL-3 for 12 h before the assay. […] The Y-axis represents the cpm (count per minute) values measured by a β-counter. […]

[2] = test system: IL-15 signaling (STAT5, PI3kinase-Akt, MAP-kinase branches); assay: Western blot of phosphorylation downstream of IL-15 in PT-18β cells; conditions: 1 nM human IL-15, 0.5 μM BNZ132-1
Protocol: FIG. 9A-FIG. 9C present comprehensive inhibition by BN132-1 of signaling events caused by target γc-cytokines. […] Cells have been fasted of IL-3 for 12 h and then stimulated with 1 nM human IL-15 (Peprotech) in the presence or absence of 0.5 μM BNZ132-1 for 15 min before extraction of cellular proteins. Phosphorylation of the relevant molecules were detected using antibodies against each phosphor-proteins (Cell Signaling), followed by the ECL technique (Thermo Scientific). Lanes: 1. no stimulation, 2. IL-15 (1 nM), 3. IL-15 (1 nM)+BNZ132-1 (0.5 μM).
Cellular proliferation often represents a combination of several independent signaling pathways, and inhibiting one signaling branch […] the proliferation. […] FIG. 9A-FIG. 9C show comprehensive inhibition of the signal transduction pathways downstream of IL-15/IL-15 receptor system in PT-18 cells by BNZ 132-1. PT-18β cells have been withdrawn of IL-15 for overnight to induce into proliferative quiescence (no-stimulation). To restimulate the cells, 1 nM of IL-15 was added in the presence or absence of BNZ132-1 (0.5 μM). After […], cell lysates were collected and phosphorylation of key mediators of major signaling branches were determined by western blotting.

[3] = test system: γc-cytokines; assay: Target cytokine spectrum within the γc-family

For IKEFLQRFIHIVQSIINTS [BNZ132-1], the “inhibition of IL-2-induced proliferation of CTLL-2 cells” value [1] was “inhibited IL-2 and IL-15 with an equal efficacy; also recorded: efficiently inhibits; also recorded: inhibition of IL-2 and IL-15”, the “inhibition of IL-15 signaling (phosphorylation of key signaling molecules)” value [2] was “comprehensively inhibited; also recorded: near-complete inhibition” and the γc-cytokines not inhibited ([3]; IL-4, IL-7 and IL-21) was “excludes IL-4,-7 or -21”. For the same sequence, the γc-cytokines inhibited ([3]; summary statements, BNZ132-2 and -3 data not shown) was “specifically inhibits IL-2, IL-15 and IL-9; also recorded: restricted to IL-2, -15, and -9”.

Source: patent US10854312B2, “Selective peptide antagonists” (BIONIZ, LLC, priority 2013, dated 2020)
